Assay results as given in patent US20100292509A1, “VEGFC PRODUCTION PROMOTER” (Shiseido Company, Ltd, priority 2008, published 2010).

System: VEGFC
Settings: HaCaT cells; 7% by weight drug solution added at 1/100, 1/1000 or 1/10000 the amount of culture liquid; 48 hours; solvent control assigned 100; FIG. 1
Method: HaCaT cells, which are cultured cells derived from human epidermis (German Cancer Research Center, Heidelberg, Germany), were cultured in DMEM containing 10% FBS and seeded into a 24-well plate at 15×10^4 cells per well. After about 24 hours, the medium was replaced with serum-free DMEM followed by culturing for 24 hours. Subsequently, a solution of a candidate drug dissolved in water to a concentration of 7% by weight was added in an amount equal to 1/100, 1/1000 or 1/10000 the amount of culture liquid followed by additional culturing. 48 hours after adding the drug, the culture supernatant was recovered and the amount of VEGFC in the culture supernatant was quantified by ELISA (R&D Systems) in accordance with the protocol. In addition, Alamar Blue (TREK Diagnostic Systems) was added to the cells following recovery of culture supernatant followed by measurement of the number of cells as fluorescence intensity (Ex: 544 nm, Em: 590 nm). The amount of VEGFC expressed per cell was determined by dividing the amount of VEGFC in the culture supernatant by the fluorescence value of the Alamar Blue. A solvent in the form of 70% EtOH was added to the cells instead of drug for use as a control, and the value thereof was assigned a value of 100. In addition, 5% FBS was used as a positive control.

CNC(=O)[C@H]1CC[C@H](CN)CC1.Cl [tranexamic acid methylamide hydrochloride]
VEGFC induction activity (amount of VEGFC expressed per cell): dose-dependent VEGFC induction activity that exceeded that of the control
